Measured values as given in ChEMBL document CHEMBL5034039, “Discovery of Novel, Orally Bioavailable Pyrimidine Ether-Based Inhibitors of ELOVL1” (J Med Chem, 2021).
Calls of active or inactive are those of the source. The calls are words filed in the database; no cut-off is given here.

Legend:
MDR1 = assay: Efflux ratio of permeability in dog MDCK-MDR1 cells; type: ADME, cell-based, Canis lupus familiaris
[1] = target: T1, Very long chain fatty acid elongase 6 (Homo sapiens) (UniProt Q9H5J4); assay: Inhibition of ELOVL6 in HEK293 cells assessed as reduction of C18:0 lipo phosphatidyl choline synthesis at 100 nM in presence of 13C-labeled acetate measured after 48 hrs by mass spectroscopic analysis; type: cell-based
T1 sequence (whole entry): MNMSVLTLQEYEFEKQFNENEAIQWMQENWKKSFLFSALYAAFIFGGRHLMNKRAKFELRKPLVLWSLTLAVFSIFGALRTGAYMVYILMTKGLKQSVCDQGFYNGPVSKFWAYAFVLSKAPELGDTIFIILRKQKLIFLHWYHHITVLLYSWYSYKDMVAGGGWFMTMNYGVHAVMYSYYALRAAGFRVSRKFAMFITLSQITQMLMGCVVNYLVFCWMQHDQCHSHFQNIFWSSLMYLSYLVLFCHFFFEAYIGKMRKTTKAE

[2] = Intrinsic clearance in rat hepatocytes assessed per million cells; type: ADME, cell-based, Hepatocyte; details: read-out: CLH
[3] = Reduction in C26:0/C16:0 LPC level in wild type Sprague-Dawley rat blood at 50 mg/kg, po qd measured after 28 days relative to control; type: functional; parameters: scale not given: the % may be the effect or the level left; details: time 28 day
[4] = target: T1, Very long chain fatty acid elongase 6 (Homo sapiens); assay: Inhibition of ELOVL6 in HEK293 cells assessed as reduction of C16:0 lipo phosphatidyl choline synthesis at 100 nM in presence of 13C-labeled acetate measured after 48 hrs by mass spectroscopic analysis; type: cell-based
[5] = Reduction in C26:0 LPC level in wild type mouse blood at 4 mg/kg, po qd and measured after 1 week relative to control; type: functional; parameters: scale not given: the % may be the effect or the level left; details: time 1 weeks
[6] = target: T2, Very long chain fatty acid elongase 1 (Homo sapiens) (UniProt Q9BW60); assay: Inhibition of ELOVL1 in HEK293 cells assessed as increase in C20:0 lipo phosphatidyl choline synthesis at 100 nM in presence of 13C-labeled acetate measured after 48 hrs by mass spectroscopic analysis; type: cell-based
T2 sequence (whole entry): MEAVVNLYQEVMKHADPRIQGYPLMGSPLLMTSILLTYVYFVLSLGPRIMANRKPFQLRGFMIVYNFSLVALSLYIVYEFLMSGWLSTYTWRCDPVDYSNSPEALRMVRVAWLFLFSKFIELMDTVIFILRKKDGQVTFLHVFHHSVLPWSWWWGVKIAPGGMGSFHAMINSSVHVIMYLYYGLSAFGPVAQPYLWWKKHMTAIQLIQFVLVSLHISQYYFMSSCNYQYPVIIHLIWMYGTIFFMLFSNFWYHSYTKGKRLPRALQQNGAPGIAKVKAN

[7] = target: T3, Very long chain fatty acid elongase 6 (Homo sapiens, UniProt Q9H5J4); assay: Inhibition of ELOVL6 in HEK293 cells by radiometric enzyme assay; type: cell-based
T3 sequence (Q9H5J4 whole entry): T1 sequence (whole entry)

[8] = Toxicity in Cynomolgus monkey assessed as convulsion at >50 mg/kg/day, po qd measured after 14 days; type: organism-based, Macaca fascicularis; details: in vivo, 336 h, time 14 day
Mus musculus [9] = assay: Reduction in C26:0/C16:0 LPC level in ABCD1 knock out mouse CNS at 4 to 32 mg/kg, po qd and measured after 1 month; type: functional, organism-based; details: dose 4-32 mg/kg, time 1.0 months
[10] = Reduction in C26:0 LPC level in wild type mouse blood at 32 mg/kg, po qd and measured after 1 week relative to control; type: functional; parameters: scale not given: the % may be the effect or the level left; details: time 1 weeks
[11] = target: T2, Very long chain fatty acid elongase 1 (Homo sapiens); assay: Inhibition of ELOVL1 in HEK293 cells assessed as reduction of C24:0 lipo phosphatidyl choline synthesis at 100 nM in presence of 13C-labeled acetate measured after 48 hrs by mass spectroscopic analysis; type: cell-based
[12] = Lipophilicity, logD of the compound at pH 7.4; type: physicochemical; details: buffer
[13] = Clearance in rat at 1 mg/kg, iv; type: ADME, organism-based; details: in vivo
[14] = target: Kappa-type opioid receptor (Homo sapiens) (UniProt P41145); assay: Inhibition of human kappa opioid receptor at 10 uM relative to control
Chain of Kappa-type opioid receptor (Homo sapiens) (P41145 whole entry): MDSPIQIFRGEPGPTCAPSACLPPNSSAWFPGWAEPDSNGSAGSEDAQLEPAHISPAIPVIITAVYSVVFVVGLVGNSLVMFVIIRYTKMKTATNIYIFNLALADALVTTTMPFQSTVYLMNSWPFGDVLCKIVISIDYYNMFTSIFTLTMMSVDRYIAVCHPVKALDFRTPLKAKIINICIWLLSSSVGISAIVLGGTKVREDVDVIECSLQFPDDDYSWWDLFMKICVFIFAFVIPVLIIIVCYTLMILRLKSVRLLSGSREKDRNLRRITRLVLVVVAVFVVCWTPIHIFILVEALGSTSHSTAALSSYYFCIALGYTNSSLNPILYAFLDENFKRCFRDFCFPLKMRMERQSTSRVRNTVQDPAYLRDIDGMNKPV

Mus musculus [15] = assay: Reduction in C26:0/C16:0 LPC level in ABCD1 knock out mouse blood at 1 to 32 mg/kg, po qd and measured after 1 week; type: functional, organism-based; details: dose 1-32 mg/kg, time 1.0 weeks
[16] = Oral bioavailability in rat at 3 mg/kg; type: ADME, organism-based; details: in vivo
HEK293 = assay: Cytotoxicity against HEK293 cells assessed as reduction in cell viability at 100 nM measured after 48 hrs; type: cell-based; details: human, hek293, 48 h, 0.1 µM
[17] = target: 3',5'-cyclic phosphodiesterase (Homo sapiens) (UniProt O76074+P27815+Q14432+Q13956+P18545+O00408+Q13946+P54750+O76083+P35913+Q08499+Q07343+O43924+P16499+Q13370+P51160+O95263+Q9Y233+Q01064+Q08493+Q14123+O60658+Q9NP56); assay: Inhibition of human PDE4 at 10 uM relative to control; type: protein assay
[18] = target: T2, Very long chain fatty acid elongase 1 (Homo sapiens); assay: Inhibition of ELOVL1 in HEK293 cells assessed as reduction of C26:0 lipo phosphatidyl choline synthesis at 100 nM in presence of 13C-labeled acetate measured after 48 hrs by mass spectroscopic analysis; type: cell-based
[19] = Ocular toxicity in rat assessed as corneal opacities at 10 to 50 mg/kg/day, po qd measured after 8 weeks by macroscopic analysis; type: organism-based; details: in vivo, 1344 h, dose 10-50 mg/kg/day
[20] = target: T4, Very long chain fatty acid elongase 1 (Homo sapiens, UniProt Q9BW60); assay: Inhibition of ELOVL1 in HEK293 cells assessed as reduction of C26:0 lipo phosphatidyl choline synthesis; type: cell-based
T4 sequence (Q9BW60 whole entry): T2 sequence (whole entry)

[21] = Inhibition of ELOVL4 in HEK293 cells by radiometric enzyme assay; type: cell-based, Homo sapiens
[22] = target: Voltage-gated inwardly rectifying potassium channel KCNH2 (Homo sapiens, UniProt Q12809); assay: Inhibition of human ERG
Chain of Voltage-gated inwardly rectifying potassium channel KCNH2 (Q12809 whole entry): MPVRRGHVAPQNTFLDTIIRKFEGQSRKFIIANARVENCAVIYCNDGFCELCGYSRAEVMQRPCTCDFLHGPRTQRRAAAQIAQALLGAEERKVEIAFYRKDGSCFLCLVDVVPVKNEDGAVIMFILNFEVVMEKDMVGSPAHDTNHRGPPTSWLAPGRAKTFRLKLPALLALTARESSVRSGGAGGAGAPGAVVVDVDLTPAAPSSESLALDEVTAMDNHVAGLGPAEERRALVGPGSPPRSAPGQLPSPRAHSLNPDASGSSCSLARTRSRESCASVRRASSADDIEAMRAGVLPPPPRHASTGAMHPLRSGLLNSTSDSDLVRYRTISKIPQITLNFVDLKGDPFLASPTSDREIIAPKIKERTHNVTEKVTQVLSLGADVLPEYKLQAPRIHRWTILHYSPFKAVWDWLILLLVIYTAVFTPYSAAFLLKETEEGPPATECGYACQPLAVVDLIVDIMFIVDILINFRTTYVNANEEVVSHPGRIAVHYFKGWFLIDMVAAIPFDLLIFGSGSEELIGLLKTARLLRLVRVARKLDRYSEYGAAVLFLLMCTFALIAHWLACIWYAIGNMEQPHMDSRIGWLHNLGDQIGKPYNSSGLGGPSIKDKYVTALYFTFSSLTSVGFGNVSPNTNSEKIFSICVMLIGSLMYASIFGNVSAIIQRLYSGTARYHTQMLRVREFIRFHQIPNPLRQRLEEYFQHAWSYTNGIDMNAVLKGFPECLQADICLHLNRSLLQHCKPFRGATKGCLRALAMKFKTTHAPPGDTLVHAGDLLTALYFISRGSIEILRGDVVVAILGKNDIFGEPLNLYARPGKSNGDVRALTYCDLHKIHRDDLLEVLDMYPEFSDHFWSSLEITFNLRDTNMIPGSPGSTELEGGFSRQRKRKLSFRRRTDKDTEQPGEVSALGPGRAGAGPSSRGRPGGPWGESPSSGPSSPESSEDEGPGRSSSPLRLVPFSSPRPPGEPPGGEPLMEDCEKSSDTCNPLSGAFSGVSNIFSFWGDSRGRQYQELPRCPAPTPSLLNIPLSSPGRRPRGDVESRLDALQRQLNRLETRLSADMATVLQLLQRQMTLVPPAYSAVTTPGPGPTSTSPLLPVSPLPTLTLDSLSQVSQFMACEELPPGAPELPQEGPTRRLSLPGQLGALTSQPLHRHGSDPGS

[23] = Reduction in C26:0/C16:0 LPC level in wild type Sprague-Dawley rat blood at 10 mg/kg, po qd measured after 28 days relative to control; type: functional; parameters: scale not given: the % may be the effect or the level left; details: time 28 day
[24] = Inhibition of ELOVL7 in HEK293 cells by radiometric enzyme assay; type: cell-based, Homo sapiens
[25] = Half life in rat at 1 mg/kg, iv; type: ADME, organism-based; details: in vivo
Cynomolgus monkey [26] = assay: Reduction in C26:0/C16:0 LPC level in wild type Cynomolgus monkey blood at 50 mg/kg, po qd measured after 14 days relative to control; type: functional, Macaca fascicularis; parameters: scale not given: the % may be the effect or the level left; details: time 14 day
[27] = Reduction in C26:0/C16:0 LPC level in ABCD1 knock out mouse blood at >=8 mg/kg, po qd and measured after 1 week relative to control; type: functional; parameters: scale not given: the % may be the effect or the level left; details: dose mg/kg >=8; time 1 weeks
[28] = Reduction in C26:0/C16:0 LPC level in ABCD1 knock out mouse CNS at 32 mg/kg, po qd and measured after 3 months relative to control; type: functional; parameters: scale not given: the % may be the effect or the level left; details: 2190 h
Cynomolgus monkey [29] = assay: Reduction in C26:0/C16:0 LPC level in wild type Cynomolgus monkey blood at 6.5 mg/kg, po qd measured after 14 days relative to control; type: functional, Macaca fascicularis; parameters: scale not given: the % may be the effect or the level left; details: time 14 day
[30] = Reduction in C26:0 LPC level in wild type mouse blood at 16 mg/kg, po qd and measured after 1 week relative to control; type: functional; parameters: scale not given: the % may be the effect or the level left; details: time 1 weeks
[31] = Permeability of compound across apical to basolateral side in MDCK-MDR1 cells; type: ADME, cell-based, Canis lupus familiaris; details: dog, read-out: permeability

SMILES: c1ccc([C@H]2CN(c3cc(O[C@H]4C[C@@H](n5cccn5)C4)ncn3)CCO2)cc1
- efflux ratio (MDR1): 1
- inhibition [1]: inactive
- hepatocyte CLint [2]: 20 µL/min/1e6 cells
- Activity [3]: 79%
- inhibition [4]: inactive
- Activity [5]: 45%
- inhibition [6]: Active
- IC50 [7]: > 50 µM
- Activity [8]: Toxic
- Activity (Mus musculus [9]): inactive
- Activity [10]: 70%
- inhibition [11]: Active
- logD [12]: 3.3
- clearance [13]: 20 mL/min/kg
- inhibition [14]: 54%
- Activity (Mus musculus [15]): Active
- bioavailability [16]: 45%
- Activity (HEK293): Non-Toxic
- inhibition [17]: 74%
- inhibition [18]: Active
- Activity [19]: Toxic
- IC50 [20]: 0.0004 µM
- IC50 [21]: > 50 µM
- IC50 [22]: > 30 µM
- Activity [23]: 78%
- IC50 [24]: > 50 µM
- half-life [25]: 3.1 h
- Activity (Cynomolgus monkey [26]): 65%
- Activity [27]: 72%
- Activity [28]: 27%
- Activity (Cynomolgus monkey [29]): 47%
- Activity [30]: 70%
- Papp A→B [31]: 17.4 ×10⁻⁶ cm/s
